# Test results reported in patent US8563542B2 (Cyclacel Limited, priority 2007, dated 2013).
# Read-outs that look alike come from different tables or passages of the source.
# Columns and labels:
# AA = molecular target: T1, AA (Homo sapiens, UniProt O14965); assay: AA IC50 (Table 1; no method given); assay type: biochemical
# T1 sequence (O14965 1-403): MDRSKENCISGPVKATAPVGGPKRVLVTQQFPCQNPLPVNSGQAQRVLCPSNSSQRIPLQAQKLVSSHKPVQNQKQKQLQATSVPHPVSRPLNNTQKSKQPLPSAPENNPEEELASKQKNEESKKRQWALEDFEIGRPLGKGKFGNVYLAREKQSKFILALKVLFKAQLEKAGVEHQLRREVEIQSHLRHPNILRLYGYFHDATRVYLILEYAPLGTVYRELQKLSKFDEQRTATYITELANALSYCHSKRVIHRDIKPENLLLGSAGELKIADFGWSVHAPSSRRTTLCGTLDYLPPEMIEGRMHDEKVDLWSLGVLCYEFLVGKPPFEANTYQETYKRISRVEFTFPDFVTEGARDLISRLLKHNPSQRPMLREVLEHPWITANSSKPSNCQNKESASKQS
# PLK1 = PLK1 (Homo sapiens, UniProt P53350); assay: PLK1 protein kinase assay (CDC25C phosphorylation, [γ-32P]-ATP); assay type: biochemical; details: read-out: PLK1 IC50
# Chain of PLK1 (P53350 whole entry): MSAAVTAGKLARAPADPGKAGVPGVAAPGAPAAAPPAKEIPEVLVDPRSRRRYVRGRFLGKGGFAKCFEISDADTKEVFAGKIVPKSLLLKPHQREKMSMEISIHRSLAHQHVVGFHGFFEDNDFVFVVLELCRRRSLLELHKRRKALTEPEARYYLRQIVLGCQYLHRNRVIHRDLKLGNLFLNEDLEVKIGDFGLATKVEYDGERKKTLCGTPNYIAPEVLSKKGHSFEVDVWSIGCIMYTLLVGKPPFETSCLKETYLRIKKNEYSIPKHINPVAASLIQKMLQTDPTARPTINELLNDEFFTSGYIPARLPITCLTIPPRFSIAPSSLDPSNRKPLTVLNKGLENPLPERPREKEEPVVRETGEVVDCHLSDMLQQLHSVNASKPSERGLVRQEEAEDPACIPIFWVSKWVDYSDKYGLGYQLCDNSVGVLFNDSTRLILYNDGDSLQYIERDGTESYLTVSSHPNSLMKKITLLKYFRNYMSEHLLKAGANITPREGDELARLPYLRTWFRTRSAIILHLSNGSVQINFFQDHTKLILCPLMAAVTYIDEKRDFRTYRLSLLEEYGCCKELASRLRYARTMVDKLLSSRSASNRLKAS
# [1] = Table 2, AurA IC50, class symbols, read-out: AurA IC50
# [2] = Table 2, PLK1 IC50, class symbols
Compound,IC50 (AA; [1]) [µM],other results
"COc1cc(C(=O)O)ccc1Nc1ncc2c(n1)N(C1CCCC1)CCC(=O)N2C [compound 1, 4-(9-Cyclopentyl-5-methyl-6-oxo-6,7,8,9-tetrahydro-5H-pyrimido[4,5-b][1,4]diazepin-2-ylamino)-3-methoxy-benzoic acid]",–,"IC50 (AA; Table 1, read-out: AA IC50): 1 to 10 µM; IC50 (PLK1; Table 1): < 1 µM"
CC1CC(=O)Nc2cnc(Nc3ccc(C(=O)O)cc3)nc2N1C1CCCC1 (stereo not shown) [compound 7],–,"IC50 (AA; Table 1, read-out: AA IC50): 1 to 10 µM; IC50 (PLK1; Table 1): < 1 µM"
"CC1CC(=O)N(C)c2cnc(Nc3ccc(C(=O)O)cc3)nc2N1C1CCCC1 (stereo not shown) [compound 8, 4-(9-Cyclopentyl-5,8-dimethyl-6-oxo-6,7,8,9-tetrahydro-5H-pyrimido[4,5-b][1,4]diazepin-2-ylamino)-benzoic acid]",–,"IC50 (AA; Table 1, read-out: AA IC50): < 0.1 µM; IC50 (PLK1; Table 1): < 1 µM"
"CN1C(=O)CCN(c2ccccc2)c2nc(Nc3ccc(C(=O)O)cc3)ncc21 [compound 15, 4-(5-Methyl-6-oxo-9-phenyl-6,7,8,9-tetrahydro-5H-pyrimido[4,5-b][1,4]diazepin-2-ylamino)-benzoic acid]",–,"IC50 (AA; Table 1, read-out: AA IC50): 0.1 to 1 µM; IC50 (PLK1; Table 1): < 10 µM"
"CC1CN(C2CCCC2)c2nc(Nc3ccc(C(=O)NC4CCN(C)CC4)cc3)ncc2NC1=O (stereo not shown) [compound 18, 4-(9-Cyclopentyl-7-methyl-6-oxo-6,7,8,9-tetrahydro-5H-pyrimido[4,5-b][1,4]diazepin-2-ylamino)-N-(1-methyl-piperidin-4-yl)-benzamide]",–,"IC50 (AA; Table 1, read-out: AA IC50): 1 to 10 µM; IC50 (PLK1; Table 1): < 10 µM"
"CC1CC(=O)N(C)c2cnc(Nc3ccc(C(=O)NC4CCN(C)CC4)cc3)nc2N1C1CCCC1 (stereo not shown) [compound 37, 4-(9-Cyclopentyl-5,8-dimethyl-6-oxo-6,7,8,9-tetrahydro-5H-pyrimido[4,5-b][1,4]diazepin-2-ylamino)-N-(1-methyl-piperidin-4-yl)-benzamide]",–,"IC50 (AA; Table 1, read-out: AA IC50): 0.1 to 1 µM; IC50 (PLK1; Table 1): < 1 µM"
"COc1ccc(N2CCC(=O)N(C)c3cnc(Nc4ccc(NC(=O)C5CC5)c(C)c4)nc32)cc1 [compound 327, Cyclopropanecarboxylic acid {4-[9-(4-methoxy-phenyl)-5-methyl-6-oxo-6,7,8,9-tetrahydro-5H-pyrimido[4,5-b][1,4]diazepin-2-ylamino]-2-methyl-phenyl}-amide]",< 0.1,–
"CCN1C(=O)CCN(c2ccc(C)cc2)c2nc(Nc3ccc(NC(=O)C4CC4)c(C)c3)ncc21 [compound 328, Cyclopropanecarboxylic acid [4-(5-ethyl-6-oxo-9-p-tolyl-6,7,8,9-tetrahydro-5H-pyrimido[4,5-b][1,4]diazepin-2-ylamino)-2-methyl-phenyl]-amide]",< 10,–
"CCN1C(=O)CCN(c2ccc(OC)cc2)c2nc(Nc3ccc(NC(=O)C4CC4)c(C)c3)ncc21 [compound 330, Cyclopropanecarboxylic acid {4-[5-ethyl-9-(4-methoxy-phenyl)-6-oxo-6,7,8,9-tetrahydro-5H-pyrimido[4,5-b][1,4]diazepin-2-ylamino]-2-methyl-phenyl}-amide]",< 10,–
"CCN1C(=O)CCN(c2ccc(C)cc2)c2nc(Nc3ccc4c(c3)CS(=O)(=O)C4)ncc21 [compound 331, 2-(2,2-Dioxo-2,3-dihydro-1H-2lambda*6*- benzo[c]thiophen-5-ylamino)-5-ethyl-9-p-tolyl-5,7,8,9-tetrahydro-pyrimido[4,5-b][1,4]diazepin-6-one]",< 0.1,–
"COc1ccc(N2CCC(=O)N(C)c3cnc(Nc4ccc5c(c4)CS(=O)(=O)C5)nc32)cc1 [compound 332, 2-(2,2-Dioxo-2,3-dihydro-1H-2lambda*6*- benzo[c]thiophen-5-ylamino)-9-(4-methoxy-phenyl)-5-methyl-5,7,8,9-tetrahydro-pyrimido[4,5-b][1,4]diazepin-6-one]",< 0.1,–
"CCN1C(=O)CCN(c2ccc(OC)cc2)c2nc(Nc3ccc4c(c3)CS(=O)(=O)C4)ncc21 [compound 333, 2-(2,2-Dioxo-2,3-dihydro-1H-2lambda*6*- benzo[c]thiophen-5-ylamino)-5-ethyl-9-(4-methoxy-phenyl)-5,7,8,9-tetrahydro-pyrimido[4,5-b][1,4]diazepin-6-one]",< 0.1,–
"CN1C(=O)CCN(c2ccc(C(C)(C)C)cc2)c2nc(Nc3ccc4c(c3)CS(=O)(=O)C4)ncc21 [compound 334, 9-(4-tert-Butyl-phenyl)-2-(2,2-dioxo-2,3-dihydro-1H-2lambda*6*-benzo[c]thiophen-5-ylamino)-5-methyl-5,7,8,9-tetrahydro-pyrimido[4,5-b][1,4]diazepin-6-one]",< 10,–
"CCN1C(=O)CCN(c2ccc(C(C)(C)C)cc2)c2nc(Nc3ccc4c(c3)CS(=O)(=O)C4)ncc21 [compound 335, 9-(4-tert-Butyl-phenyl)-2-(2,2-dioxo-2,3-dihydro-1H-2lambda*6*-benzo[c]thiophen-5-ylamino)-5-ethyl-5,7,8,9-tetrahydro-pyrimido[4,5-b][1,4]diazepin-6-one]",< 10,–
"CCN1C(=O)CCN(c2ccc(N3CCOCC3)cc2)c2nc(Nc3ccc4c(c3)CS(=O)(=O)C4)ncc21 [compound 338, 2-(2,2-Dioxo-2,3-dihydro-1H-2lambda*6*- benzo[c]thiophen-5-ylamino)-5-ethyl-9-(4-morpholin-4-yl-phenyl)-5,7,8,9-tetrahydro-pyrimido[4,5-b][1,4]diazepin-6-one]",< 1,–
"CCN1C(=O)CCN(c2c(F)cccc2F)c2nc(Nc3ccc4c(c3)CS(=O)(=O)C4)ncc21 [compound 340, 9-(2,6-Difluoro-phenyl)-2-(2,2-dioxo-2,3-dihydro-1H-2lambda*6*-benzo[c]thiophen-5-ylamino)-5-ethyl-5,7,8,9-tetrahydro-pyrimido[4,5-b][1,4]diazepin-6-one]",< 1,–
Cc1cc(Nc2ncc3c(n2)N(c2ccc(C(C)(C)C)cc2)CCC(=O)N3C)ccc1NC(=O)C1CC1 [compound 342],< 10,–
"COc1ccc(N2CCC(=O)N(C)c3cnc(Nc4ccc(S(=O)(=O)NC(C)=O)cc4)nc32)cc1 [compound 350, N-Acetyl-4-[9-(4-methoxy-phenyl)-5-methyl-6-oxo-6,7,8,9-tetrahydro-5H-pyrimido[4,5-b][1,4]diazepin-2-ylamino]-benzenesulfonamide]",< 1,–
"CC(=O)NS(=O)(=O)c1ccc(Nc2ncc3c(n2)N(c2c(F)cccc2F)CCC(=O)N3C)cc1 [compound 351, N-Acetyl-4-[9-(2,6-difluoro-phenyl)-5-methyl-6-oxo-6,7,8,9-tetrahydro-5H-pyrimido[4,5-b][1,4]diazepin-2-ylamino]-benzenesulfonamide]",< 0.1,–
CC(=O)NS(=O)(=O)c1ccc(Nc2ncc3c(n2)N(c2ccc(N4CCOCC4)cc2)CCC(=O)N3C)cc1 [compound 352],< 1,–

# Continued, in another order:
IC50 (AA; [1]) [µM],Compound,other results
< 0.1,"CCC1CN(C2CCCC2)c2nc(Nc3ccc(C(=O)O)cc3)ncc2N(C)C1=O (stereo not shown) [compound 41, 4-(9-Cyclopentyl-7-ethyl-5-methyl-6-oxo-6,7,8,9-tetrahydro-5H-pyrimido[4,5-b][1,4]diazepin-2-ylamino)-benzoic acid]",IC50 (PLK1; [2]): < 1 µM
< 1,"COc1cc(C(=O)NC2CCN(C)CC2)ccc1Nc1ncc2c(n1)N(C(C)(C)C)CCC(=O)N2C [compound 42, 4-(9-tert-Butyl-5-methyl-6-oxo-6,7,8,9-tetrahydro-5H-pyrimido[4,5-b][1,4]diazepin-2-ylamino)-3-methoxy-N-(1-methyl-piperidin-4-yl)-benzamide]",IC50 (PLK1; [2]): < 10 µM
< 0.1,"CN1C(=O)CCN(C2CCCC2)c2nc(Nc3ccc4c(c3)CS(=O)(=O)C4)ncc21 [compound 46, 9-Cyclopentyl-2-(2,2-dioxo-2,3-dihydro-1H-2lambda*6*-benzo[c]thiophen-5-ylamino)-5-methyl-5,7,8,9-tetrahydro-pyrimido[4,5-b][1,4]diazepin-6-one]",IC50 (PLK1; [2]): < 10 µM
< 1,"CN1C(=O)CCN(C2CCCC2)c2nc(Nc3ccc(S(=O)(=O)NC4CCS(=O)(=O)C4)cc3)ncc21 (stereo not shown) [compound 325, 4-(9-Cyclopentyl-5-methyl-6-oxo-6,7,8,9-tetrahydro-5H-pyrimido[4,5-b][1,4]diazepin-2-ylamino)-N-(1,1-dioxo-tetrahydro-1lambda*6*- thiophen-3-yl)-benzenesulfonamide]",–
< 1,"Cc1cc(Nc2ncc3c(n2)N(c2c(F)cccc2F)CCC(=O)N3C)ccc1NC(=O)C1CC1 [compound 329, Cyclopropanecarboxylic acid {4-[9-(2,6-difluoro-phenyl)-5-methyl-6-oxo-6,7,8,9-tetrahydro-5H-pyrimido[4,5-b][1,4]diazepin-2-ylamino]-2-methyl-phenyl}amide]",–
< 0.1,"CN1C(=O)CCN(c2ccc(N3CCOCC3)cc2)c2nc(Nc3ccc4c(c3)CS(=O)(=O)C4)ncc21 [compound 336, 2-(2,2-Dioxo-2,3-dihydro-1H-2lambda*6*- benzo[c]thiophen-5-ylamino)-5-methyl-9-(4-morpholin-4-yl-phenyl)-5,7,8,9-tetrahydro-pyrimido[4,5-b][1,4]diazepin-6-one]",–
< 0.1,Cc1cc(Nc2ncc3c(n2)N(c2ccc(N4CCOCC4)cc2)CCC(=O)N3C)ccc1NC(=O)C1CC1 [compound 337],–
< 0.1,"CN1C(=O)CCN(c2c(F)cccc2F)c2nc(Nc3ccc4c(c3)CS(=O)(=O)C4)ncc21 [compound 339, 9-(2,6-Difluoro-phenyl)-2-(2,2-dioxo-2,3-dihydro-1H-2lambda*6*-benzo[c]thiophen-5-ylamino)-5-methyl-5,7,8,9-tetrahydro-pyrimido[4,5-b][1,4]diazepin-6-one]",–
